Columns and labels:
[1] = system: intracellular T. cruzi amastigotes; assay: T. cruzi amastigote growth inhibition assay (NIH 3T3 host cells, β-galactosidase readout); assay type: cell-based; conditions: Trypanosoma cruzi, NIH3T3, read-out: (c) T.c.* IC50
Method: NIH 3T3 fibroblast cells (ATCC) were maintained in RPMI-1640 medium (Life Technologies) supplemented with 10% heat-inactivated fetal bovine serum and 100 IU penicillin/100 μg/ml streptomycin at 37° C./5% CO2. T. cruzi Tulahuen parasites constitutively expressing E. coli β-galactosidase were maintained in tissue culture as an infection in NIH 3T3 fibroblast cells. Briefly, 2×10^7 T. cruzi trypomastigotes were used to infect 6×10^5 NIH 3T3 cells growing in T75 CELLSTAR tissue culture flasks and cultured at 37° C./5% CO2 until proliferating intracellular parasites lysed host 3T3 cells and were released into the culture medium (typically 6-7 days). During the infection, the tissue culture medium was changed every two days. Number of T. cruzi trypomastigotes present in 1 ml of medium was determined using a haemocytometer.
To determine compound potency on intracellular T. cruzi amastigotes, NIH 3T3 cells were re-suspended in phenol red-free RPMI-1640 medium containing 3% heat-inactivated fetal bovine serum and 100 IU penicillin/100 μg/ml streptomycin, seeded at 1,000 cells/well (40 μl) in white, clear bottom 384-well plates (Greiner Bio-One), and incubated overnight at 37° C./5% CO2. The following day, 100 nl of each compound in DMSO were transferred to individual plate wells by Echo 555 acoustic liquid handling system. After one hour incubation, 1×10^6 of tissue culture-derived T. cruzi trypomastigotes, in 10 μl of phenol red-free RPMI-1640 medium supplemented with 3% heat-inactivated fetal bovine serum and 100 IU penicillin/100 μg/ml streptomycin were added to each well. Plates were then incubated for 6 days at 37° C./5% CO2. Intracellular T. cruzi parasites were quantified by measuring the activity of parasite-expressed β-galactosidase. Ten microliters of a chromogenic β-galactosidase substrate solution (0.6 mM chlorophenol red-β-D-galactopyranoside/0.6% NP-40 in PBS; both reagents from Calbiochem) were added to each well and incubated for 2 h at room temperature. After incubation, absorption was measured at 570 nm on SpectraMax M2 plate reader (Molecular Devices). Measured absorbance values in wells with compounds were divided by the average absorbance value of the plate DMSO controls, and used for calculation of compound EC50 values as described above.

[2] = system: T. b. brucei Lister427 bloodstream form parasites; assay: T. b. brucei growth inhibition assay (CellTiter-Glo, 48 hours); assay type: cell-based; conditions: Trypanosoma brucei
Text: Bloodstream form of T. b. brucei Lister427 strain was obtained from the Genomics Institute of the Novartis Research Foundation. This strain was used for carrying out growth inhibition and kill kinetics assays. T. b. gambiense STIB930 and T. b. rhodesiense STIB900 were obtained from Swiss TPH, were used for carrying out the growth inhibition assays.
Bloodstream form T. b. brucei Lister 427 parasites were continuously passaged in HMI-9 medium formulated from IMDM medium (Invitrogen), 10% heat-inactivated fetal bovine serum (FBS), 10% Serum Plus medium supplement (SAFC Biosciences), 1 mM hypoxanthine (Sigma-Aldrich), 50 μM bathocuproine disulfonic acid (Sigma-Aldrich), 1.5 mM cysteine (Sigma-Aldrich), 1 mM pyruvic acid (Sigma-Aldrich), 39 μg/mL thymidine (Sigma-Aldrich), and 14 μL/L beta-mercapthoethanol (Sigma-Aldrich); all concentrations of added components refer to that in complete HMI-9 medium. The parasites were cultured in 10 mL of HMI-9 medium in T75 CELL-STAR tissue culture flasks at 37° C./5% CO2.
To determine compound growth inhibitory potency on T. b. brucei Lister427 bloodstream form parasites, 200 nL of 10-point, 3 fold serially diluted compounds in DMSO were transferred to the wells of white, solid bottom 384-well plates (Greiner Bio-One) by either Echo 555 acoustic liquid handling system or Mosquito. Then, 1×10^4 of T. b. brucei parasites in 40 μL of HMI-9 medium were added to each well, and the plates were incubated for 48 hours at 37° C. in 5% CO2 incubators. Parasite numbers in individual plate wells were determined through quantification of intracellular ATP amount. The CellTiter-Glo luminescent cell viability reagent (Promega) was added to plate wells, and ATP-dependent luminescence signal was measured on Tecan M1000 plate Reader after 30 min incubation. Luminescence values in wells with compounds were divided by the average luminescence value of the plate DMSO controls, and used for calculation of compound IC50 values.

Row | SMILES | IC50 [1] [nM] | IC50 [2] [nM]
1 | N#Cc1ncn(CC(=O)N2Cc3ccc(-c4ccc(F)cc4N4CCCC4)cc3C2)n1 [Example 11, 1-(2-(5-(4-fluoro-2-(pyrrolidin-1-yl)phenyl)isoindolin-2-yl)-2-oxoethyl)-1H-1,2,4-triazole-3-carbonitrile] | 100 to 1000 | 100 to 1000
2 | N#Cc1ncn(CC(=O)N2Cc3ccc(-c4c(F)cccc4C(F)(F)F)cc3C2)n1 [Example 12, 1-(2-(5-(2-fluoro-6-(trifluoromethyl)phenyl)isoindolin-2-yl)-2-oxoethyl)-1H-1,2,4-triazole-3-carbonitrile] | < 100 | < 100
3 | Cc1ncccc1-c1ccc2c(c1)CN(C(=O)Cn1cnc(C#N)n1)C2 [Example 13, 1-(2-(5-(2-methylpyridin-3-yl)isoindolin-2-yl)-2-oxoethyl)-1H-1,2,4-triazole-3-carbonitrile] | 100 to 1000 | 100 to 1000
4 | COc1ccc(-c2ccc3c(c2)CN(C(=O)Cn2cnc(C#N)n2)C3)c(C(F)(F)F)n1 [Example 14, 1-(2-(5-(6-methoxy-2-(trifluoromethyl)pyridin-3-yl)isoindolin-2-yl)-2-oxoethyl)-1H-1,2,4-triazole-3-carbonitrile] | < 100 | 100 to 1000
5 | N#Cc1ncn(CC(=O)N2Cc3ccc(-c4c(F)ccc(F)c4Cl)cc3C2)n1 [Example 15, 1-(2-(5-(2-chloro-3,6-difluorophenyl)isoindolin-2-yl)-2-oxoethyl)-1H-1,2,4-triazole-3-carbonitrile] | < 100 | < 100
6 | N#Cc1ncn(CC(=O)N2Cc3ccc(-c4c(F)cncc4C(F)(F)F)cc3C2)n1 [Example 16, 1-(2-(5-(3-fluoro-5-(trifluoromethyl)pyridin-4-yl)isoindolin-2-yl)-2-oxoethyl)-1H-1,2,4-triazole-3-carbonitrile] | < 100 | 100 to 1000
7 | N#Cc1ncn(CC(=O)N2Cc3ccc(-c4cccnc4OC(F)(F)F)cc3C2)n1 [Example 17, 1-(2-oxo-2-(5-(2-(trifluoromethoxy)pyridin-3-yl)isoindolin-2-yl)ethyl)-1H-1,2,4-triazole-3-carbonitrile] | 100 to 1000 | 100 to 1000
8 | N#Cc1ncn(CC(=O)N2Cc3ccc(-c4c(Cl)ccnc4C(F)(F)F)cc3C2)n1 [Example 18, 1-(2-(5-(4-chloro-2-(trifluoromethyl)pyridin-3-yl)isoindolin-2-yl)-2-oxoethyl)-1H-1,2,4-triazole-3-carbonitrile] | < 100 | 100 to 1000
9 | N#Cc1ncn(CC(=O)N2Cc3ccc(-c4cccnc4CC(F)(F)F)cc3C2)n1 [Example 19, 1-(2-oxo-2-(5-(2-(2,2,2-trifluoroethyl)pyridin-3-yl)isoindolin-2-yl)ethyl)-1H-1,2,4-triazole-3-carbonitrile] | 100 to 1000 | 100 to 1000
10 | N#Cc1ncn(CC(=O)N2Cc3ccc(-c4c(F)ccnc4C(F)(F)F)cc3C2)n1 [Example 20, 1-(2-(5-(4-fluoro-2-(trifluoromethyl)pyridin-3-yl)isoindolin-2-yl)-2-oxoethyl)-1H-1,2,4-triazole-3-carbonitrile] | < 100 | < 100
11 | N#Cc1ncn(CC(=O)N2Cc3ccc(-c4c(F)ccnc4Cl)cc3C2)n1 [Example 21, 1-(2-(5-(2-chloro-4-fluoropyridin-3-yl)isoindolin-2-yl)-2-oxoethyl)-1H-1,2,4-triazole-3-carbonitrile] | < 100 | 100 to 1000
12 | N#Cc1ncn(CC(=O)N2Cc3ccc(-c4c(C(F)(F)F)ccnc4F)cc3C2)n1 [Example 22, 1-(2-(5-(2-fluoro-4-(trifluoromethyl)pyridin-3-yl)isoindolin-2-yl)-2-oxoethyl)-1H-1,2,4-triazole-3-carbonitrile] | < 100 | 100 to 1000
13 | N#Cc1ncn(CC(=O)N2Cc3ccc(-c4c(F)cncc4Cl)cc3C2)n1 [Example 23, 1-(2-(5-(3-chloro-5-fluoropyridin-4-yl)isoindolin-2-yl)-2-oxoethyl)-1H-1,2,4-triazole-3-carbonitrile] | 100 to 1000 | < 100
14 | N#Cc1ncn(CC(=O)N2Cc3ccc(-c4c(Cl)ccnc4F)cc3C2)n1 [Example 24, 1-(2-(5-(4-chloro-2-fluoropyridin-3-yl)isoindolin-2-yl)-2-oxoethyl)-1H-1,2,4-triazole-3-carbonitrile] | 100 to 1000 | 100 to 1000
15 | Cn1cc(-c2ccc3c(c2)CN(C(=O)Cn2cnc(C#N)n2)C3)c(C(F)(F)F)n1 [Example 25, 1-(2-(5-(1-methyl-3-(trifluoromethyl)-1H-pyrazol-4-yl)isoindolin-2-yl)-2-oxoethyl)-1H-1,2,4-triazole-3-carbonitrile] | 100 to 1000 | 100 to 1000
16 | N#Cc1ncn(CC(=O)N2Cc3ccc(-c4ccc(F)nc4C(F)(F)F)cc3C2)n1 [Example 26, 1-(2-(5-(6-fluoro-2-(trifluoromethyl)pyridin-3-yl)isoindolin-2-yl)-2-oxoethyl)-1H-1,2,4-triazole-3-carbonitrile] | < 100 | 100 to 1000
17 | COCCOc1cc(F)ccc1-c1ccc2c(c1)CN(C(=O)Cn1cnc(C#N)n1)C2 [Example 39, 1-(2-(5-(4-fluoro-2-(2-methoxyethoxy)phenyl)isoindolin-2-yl)-2-oxoethyl)-1H-1,2,4-triazole-3-carbonitrile] | ≥ 1000 | 100 to 1000
18 | N#Cc1ncn(CC(=O)N2Cc3ccc(-c4ccccc4OC(F)(F)F)cc3C2)n1 [Example 40, 1-(2-oxo-2-(5-(2-(trifluoromethoxy)phenyl)isoindolin-2-yl)ethyl)-1H-1,2,4-triazole-3-carbonitrile] | 100 to 1000 | 100 to 1000
19 | N#Cc1ncn(CC(=O)N2Cc3ccc(-c4ccc(C(F)(F)F)cc4Cl)cc3C2)n1 [Example 42, 1-(2-(5-(2-chloro-4-(trifluoromethyl)phenyl)isoindolin-2-yl)-2-oxoethyl)-1H-1,2,4-triazole-3-carbonitrile] | ≥ 1000 | 100 to 1000
20 | N#Cc1ncn(CC(=O)N2Cc3ccc(-c4cccc(C#N)c4F)cc3C2)n1 [Example 44, 1-(2-(5-(3-cyano-2-fluorophenyl)isoindolin-2-yl)-2-oxoethyl)-1H-1,2,4-triazole-3-carbonitrile] | 100 to 1000 | 100 to 1000
21 | Cn1nc(C(F)(F)F)cc1-c1ccc2c(c1)CN(C(=O)Cn1cnc(C#N)n1)C2 [Example 48, 1-(2-(5-(1-methyl-3-(trifluoromethyl)-1H-pyrazol-5-yl)isoindolin-2-yl)-2-oxoethyl)-1H-1,2,4-triazole-3-carbonitrile] | 100 to 1000 | 100 to 1000
22 | CC(=O)c1ccccc1-c1ccc2c(c1)CN(C(=O)Cn1cnc(C#N)n1)C2 [Example 50, 1-(2-(5-(2-acetylphenyl)isoindolin-2-yl)-2-oxoethyl)-1H-1,2,4-triazole-3-carbonitrile] | 100 to 1000 | 100 to 1000
23 | COc1cc(F)ccc1-c1ccc2c(c1)CN(C(=O)Cn1cnc(C#N)n1)C2 [Example 51, 1-(2-(5-(4-fluoro-2-methoxyphenyl)isoindolin-2-yl)-2-oxoethyl)-1H-1,2,4-triazole-3-carbonitrile] | 100 to 1000 | 100 to 1000
24 | COc1ccc(Cl)cc1-c1ccc2c(c1)CN(C(=O)Cn1cnc(C#N)n1)C2 [Example 52, 1-(2-(5-(5-chloro-2-methoxyphenyl)isoindolin-2-yl)-2-oxoethyl)-1H-1,2,4-triazole-3-carbonitrile] | 100 to 1000 | 100 to 1000

From patent US20220106296A1, “CYANOTRIAZOLE COMPOUNDS AND USES THEREOF” (Novartis AG, priority 2018, published 2022)
